Data reported in USRE48461E1, “Modulation of androgen receptor expression” (Ionis Pharmaceuticals, Inc., priority 2012, dated 2021).
Oligonucleotides are written 5' to 3', each unit as a sugar letter and its base; * is a phosphorothioate linkage, no mark a phosphodiester; rarer units and linkages stand in square brackets, end groups in braces. Plain capitals give the bases only. k = constrained ethyl (cEt); [5mC] = 5-methylcytosine; d = 2'-deoxy (DNA)

Assays:
AR mRNA [1] = assay: Antisense inhibition of human AR in HuVEC cells, single concentration (electroporation, qRT-PCR RTS3559); format: cell-based; conditions: electroporation, approximately 24 hours, relative to untreated control
Method in brief: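 AR mRNA levels were measured with human primer-probe set RTS3559 and adjusted for total RNA (RIBOGREEN). Cells were HuVEC, with each antisense oligonucleotide delivered by electroporation at one concentration.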

AR mRNA [2] = assay: Dose-dependent antisense inhibition of human AR in HuVEC cells (electroporation, qRT-PCR RTS3559, IC50); format: cell-based; conditions: HuVEC, electroporation, approximately 16 hours
Method in brief: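 HuVEC cells dosed with antisense oligonucleotides by electroporation and treated approximately 16 hours. AR mRNA quantified by real-time qPCR with primer probe set RTS3559 and normalised to total RNA by RIBOGREEN; IC50 from dose-response.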

[3] = Table 22, 500 nM oligonucleotide
[4] = Table 23, 500 nM oligonucleotide
[5] = Table 24, 1,000 nM oligonucleotide

| Substance | percent inhibition of AR, 46.9 nM (AR mRNA [2]; Table 34) | percent inhibition of AR, 187.5 nM (AR mRNA [2]; Table 34) | percent inhibition of AR, 750.0 nM (AR mRNA [2]; Table 34) | percent inhibition of AR, 3000.0 nM (AR mRNA [2]; Table 34) | IC50 (AR mRNA [2]; Table 34) | percent inhibition of AR, 46.9 nM (AR mRNA [2]; Table 35) | percent inhibition of AR, 187.5 nM (AR mRNA [2]; Table 35) | percent inhibition of AR, 750.0 nM (AR mRNA [2]; Table 35) | percent inhibition of AR, 3000.0 nM (AR mRNA [2]; Table 35) | IC50 (AR mRNA [2]; Table 35) | % inhibition (AR mRNA [1]; [5]) | other results |
| --- | --- | --- | --- | --- | --- | --- | --- | --- | --- | --- | --- | --- |
| 583998 (k[5mC]*kA*kT*dG*d[5mC]*d[5mC]*dG*d[5mC]*d[5mC]*dA*dG*dG*dG*kT*kA*k[5mC]; antisense) [compound 583998] | 4% | 25% | 38% | 70% | 890 nM |  |  |  |  |  |  | % inhibition (AR mRNA [1]; [3]): 45% |
| 583999 (kA*k[5mC]*k[5mC]*dA*dT*dG*d[5mC]*d[5mC]*dG*d[5mC]*d[5mC]*dA*dG*kG*kG*kT; antisense) [compound 583999] | 13% | 12% | 30% | 64% | 1530 nM |  |  |  |  |  |  | % inhibition (AR mRNA [1]; [3]): 29% |
| 584002 (k[5mC]*kT*kG*d[5mC]*dT*d[5mC]*dA*d[5mC]*d[5mC]*dA*dT*dG*d[5mC]*k[5mC]*kG*k[5mC]; antisense) [compound 584002] | 12% | 46% | 70% | 92% | 250 nM |  |  |  |  |  |  | % inhibition (AR mRNA [1]; [3]): 30% |
| 584006 (kA*k[5mC]*kA*d[5mC]*dA*dA*dG*dT*dG*dG*dG*dA*d[5mC]*kT*kG*kG; antisense) [compound 584006] | 21% | 26% | 59% | 88% | 350 nM |  |  |  |  |  |  | % inhibition (AR mRNA [1]; [3]): 33% |
| 584044 (k[5mC]*k[5mC]*k[5mC]*dT*dT*d[5mC]*dA*dG*d[5mC]*dG*dG*d[5mC]*dT*k[5mC]*kT*kT; antisense) [compound 584044] | 23% | 30% | 51% | 78% | 440 nM |  |  |  |  |  |  | % inhibition (AR mRNA [1]; [3]): 29% |
| 584069 (k[5mC]*kA*kG*dA*dG*dT*d[5mC]*dA*dT*d[5mC]*d[5mC]*d[5mC]*dT*kG*k[5mC]*kT; antisense) [compound 584069] | 18% | 40% | 63% | 82% | 300 nM |  |  |  |  |  |  | % inhibition (AR mRNA [1]; [4]): 36% |
| 584111 (kG*kT*kT*dT*dT*d[5mC]*dA*dA*dA*dT*dG*d[5mC]*dA*kG*k[5mC]*k[5mC]; antisense) [compound 584111] |  |  |  |  |  | 22% | 30% | 59% | 84% | 330 nM |  | % inhibition (AR mRNA [1]; [4]): 33% |
| 584125 (kG*k[5mC]*k[5mC]*dA*dT*dG*dA*dG*dA*d[5mC]*dA*dG*d[5mC]*kT*kT*kT; antisense) [compound 584125] | 12% | 12% | 47% | 76% | 720 nM |  |  |  |  |  |  | % inhibition (AR mRNA [1]; [4]): 35% |
| 584128 (kA*kT*kT*d[5mC]*dT*dT*dG*dA*d[5mC]*dT*dG*dT*d[5mC]*kT*kG*kA; antisense) [compound 584128] | 20% | 22% | 41% | 72% | 740 nM |  |  |  |  |  |  | % inhibition (AR mRNA [1]; [4]): 38% |
| 584138 (k[5mC]*kG*k[5mC]*dG*d[5mC]*dA*dG*dG*dT*dA*dG*dG*dA*kG*k[5mC]*k[5mC]; antisense) [compound 584138] |  |  |  |  |  | 2% | 40% | 62% | 89% | 370 nM |  | % inhibition (AR mRNA [1]; [4]): 35% |
| 584139 (kT*k[5mC]*kT*dA*dA*dA*d[5mC]*dA*dT*dG*dA*d[5mC]*dG*kG*kT*kT; antisense) [compound 584139] | 13% | 33% | 56% | 85% | 400 nM |  |  |  |  |  |  | % inhibition (AR mRNA [1]; [4]): 37% |
| 584145 (kA*kT*kG*dG*dG*dA*dG*dT*dA*dA*d[5mC]*dT*dT*kT*kT*kG; antisense) [compound 584145] |  |  |  |  |  | 6% | 32% | 63% | 88% | 360 nM | 76% |  |
| 584148 (k[5mC]*kA*kT*dA*dT*dT*dA*dT*dT*dG*dT*dG*d[5mC]*kT*kG*k[5mC]; antisense) [compound 584148] |  |  |  |  |  | 16% | 48% | 79% | 95% | 200 nM | 85% |  |
| 584152 (kG*kA*kG*dT*dT*dG*dT*dG*dA*dT*dT*dT*d[5mC]*kA*kG*kG; antisense) [compound 584152] |  |  |  |  |  | 28% | 59% | 87% | 95% | 110 nM | 88% |  |
| 584157 (kT*kT*kG*dA*dT*dG*dG*dA*dA*dT*dG*d[5mC]*dT*kG*kA*kT; antisense) [compound 584157] |  |  |  |  |  |  |  |  |  |  | 69% | percent inhibition of AR, 46.9 nM (AR mRNA [2]; Table 36): 6%; percent inhibition of AR, 187.5 nM (AR mRNA [2]; Table 36): 6%; percent inhibition of AR, 750.0 nM (AR mRNA [2]; Table 36): 52%; percent inhibition of AR, 3000.0 nM (AR mRNA [2]; Table 36): 82%; IC50 (AR mRNA [2]; Table 36): 590 nM |
| 584158 (kG*kG*kT*dT*dA*dA*d[5mC]*dT*dT*dT*d[5mC]*dT*d[5mC]*kT*kG*kA; antisense) [compound 584158] |  |  |  |  |  |  |  |  |  |  | 69% | percent inhibition of AR, 46.9 nM (AR mRNA [2]; Table 36): 14%; percent inhibition of AR, 187.5 nM (AR mRNA [2]; Table 36): 37%; percent inhibition of AR, 750.0 nM (AR mRNA [2]; Table 36): 70%; percent inhibition of AR, 3000.0 nM (AR mRNA [2]; Table 36): 89%; IC50 (AR mRNA [2]; Table 36): 260 nM |
| 584162 (kT*kG*kG*dA*dT*dT*dG*dT*dA*dA*dA*dT*dT*kA*k[5mC]*kG; antisense) [compound 584162] |  |  |  |  |  | 24% | 45% | 80% | 92% | 180 nM | 82% |  |
| 584165 (kT*k[5mC]*kA*dA*dT*d[5mC]*dT*dA*dG*dA*dT*dA*d[5mC]*k[5mC]*kA*kT; antisense) [compound 584165] |  |  |  |  |  |  |  |  |  |  | 70% | percent inhibition of AR, 46.9 nM (AR mRNA [2]; Table 36): 12%; percent inhibition of AR, 187.5 nM (AR mRNA [2]; Table 36): 34%; percent inhibition of AR, 750.0 nM (AR mRNA [2]; Table 36): 66%; percent inhibition of AR, 3000.0 nM (AR mRNA [2]; Table 36): 89%; IC50 (AR mRNA [2]; Table 36): 300 nM |
| 584166 (k[5mC]*kA*k[5mC]*dA*dT*d[5mC]*dA*dG*dA*dA*dG*dG*dA*kG*kT*kA; antisense) [compound 584166] |  |  |  |  |  | 34% | 52% | 84% | 92% | 100 nM | 89% |  |
| 584167 (kG*kA*kG*dT*dG*dT*dT*dA*dA*dT*dG*dA*dA*kG*kA*k[5mC]; antisense) [compound 584167] |  |  |  |  |  | 13% | 45% | 76% | 93% | 210 nM | 78% |  |
| 584168 (k[5mC]*kT*kG*dA*dT*dT*dA*dG*d[5mC]*dT*dA*dT*dG*kA*k[5mC]*k[5mC]; antisense) [compound 584168] |  |  |  |  |  |  |  |  |  |  | 70% | percent inhibition of AR, 46.9 nM (AR mRNA [2]; Table 36): 5%; percent inhibition of AR, 187.5 nM (AR mRNA [2]; Table 36): 32%; percent inhibition of AR, 750.0 nM (AR mRNA [2]; Table 36): 70%; percent inhibition of AR, 3000.0 nM (AR mRNA [2]; Table 36): 91%; IC50 (AR mRNA [2]; Table 36): 320 nM |
| 584179 (kA*kT*kG*dA*dG*dT*d[5mC]*d[5mC]*dT*d[5mC]*dA*dG*dA*kA*kT*k[5mC]; antisense) [compound 584179] |  |  |  |  |  | 1% | 25% | 62% | 87% | 440 nM | 74% |  |
| 584180 (kG*kT*kA*dG*dA*dT*dT*d[5mC]*dT*dA*dG*d[5mC]*dT*kT*kT*kG; antisense) [compound 584180] |  |  |  |  |  | 26% | 56% | 84% | 96% | 120 nM | 81% |  |
| 584183 (kA*k[5mC]*kA*dG*dG*d[5mC]*dT*d[5mC]*dT*dG*dA*d[5mC]*dT*kA*kG*kG; antisense) [compound 584183] |  |  |  |  |  | 3% | 41% | 64% | 87% | 310 nM | 76% |  |
